{"source": "patent US20090068286A1", "about": "“METHOD OF TREATING CANCER BY ADMINISTRATION OF 5-SUBSTITUTED NUCLEOSIDES” (RESprotect, GmbH, priority 2007, published 2009)", "key": {"DT-diaphorase (DT-D)": {"tested_on": "DT-diaphorase (DT-D)", "experiment": "DT-diaphorase activity in cell extracts (dicoumarol-inhibitable NAD(P)H: dichlorophenol indophenol reductase)", "type": "cell-based", "description": "The measurement of the DT-diaphorase (DT-D) was effected as a dicoumarol-inhibitable NAD(P)H: dichlorophenol indophenol reductase, as described in Hodnick et al., Anal. Biochem 252(1), 1997, 165-168 (incorporated by reference herein in its entirety). Extracts were tested of a similar number of cells which had been treated with DOX±BVDU for DT-D activity."}, "STAT3": {"tested_on": "STAT3", "experiment": "Western Blot analysis of survival pathways: STAT3", "type": "cell-based", "conditions": "after DOX treatment, recovery phase: only BVDU given, no cytostatic", "description": "Different “survival pathways” were tested by means of Western Blot analysis. The analyses were implemented according to standard methods, as is described in Sambrook et al., 2001, Molecular Cloning (3rd ed.). Antibody dilutions: P-STAT3 (cell signaling) 1: 500, JUN-D (Santa Cruz, Calif.) 1: 1,000.\nThe densitometrically determined content of oncogene proteins JUN-D and STAT3 was reduced by a quarter or two thirds after DOX treatment in the recovery phase (r=recovery phase). In the “recovery” only BVDU is given, no cytostatic."}}, "data": [{"smiles": "O=c1[nH]c(=O)n([C@H]2C[C@H](O)[C@@H](CO)O2)cc1/C=C/Br", "note": "[BVDU, (E)-5-(2-bromovinyl)-2′-deoxyuridine]", "values": [{"measurement": "DT-D activity", "setting": "DT-diaphorase (DT-D); BVDU alone", "value": "increases the DT-D activity constantly, but in part only weakly"}, {"measurement": "DT-D activity relative to control cells or cells treated solely with DOX", "setting": "DT-diaphorase (DT-D); cells treated with DOX±BVDU", "value": "approximately threefold"}, {"measurement": "Reduction of STAT3 protein content (densitometry)", "setting": "STAT3", "value": "approximately two thirds"}]}]}
